Experimental data: US20240408180A1, “IONIC LIQUIDS FOR DRUG DELIVERY” (PRESIDENT AND FELLOWS OF HARVARD COLLEGE, priority 2021, published 2024)

Key:
insulin [1] = molecular target: T1, insulin (Homo sapiens, UniProt P01308); assay: Stressed aging test of insulin-DES formulations (transmittance); format: physicochemical; settings: 50 hours at 37 C with constant shaking
T1 construct: in this case insulin around 5.8 kDa; purchased Sigma Aldrich (St. Louis, MO)
Procedure: Successful dissolution of insulin was determined by the turbidity of the formulation, assessed by converting absorbance at 540 nm to transmittance.^16 The percent transmittance threshold for the successful formulation was set at 80% as this was the mean transmittance for the clinical comparator (Humalog). Low transmittance values are indicative of insoluble insulin aggregates. All but two formulations met this criterion (FIG. 13). To further screen the remaining DES formulations, a stressed aging test was performed to determine their stability for 50 hours at 37° C. with constant shaking.
(§1) The insulin-DES formations were first analyzed for initial transmittance to confirm that there was no insulin aggregation immediately after formulation preparation. Subsequently, formulations that passed initial screening were plated in a black-walled 96 well plate (replicates of three) and subjected to a stressed aging assay in which the plate was incubated at 37° C. with constant shaking. Absorbance readings were taken every 15 minutes for 50 hours to assess the change in transmittance over time. For cold chain stability, formulations were tested in a similar manner, without constant shaking, at 4° C. for 28 days.

[2] = rat, in vivo, 10 mg/kg; cited from earlier work
dendritic cell line = assay: In vitro transfection with mRNA nanoparticles coated with DES; format: cell-based; settings: 4 hours incubation, flow cytometry
Procedure: IL delivery of mRNA in vitro was assessed. The in vitro transfection experiments were performed in a dendritic cell line with mRNA nanoparticles and indicate that acetylcholine hexenoic acid DES can enhance mRNA treatments. The particles were incubated with acetylcholine DES solutions to “coat” the particles. The cells were incubated with the particles for the 4 hours before analyzing with flow cytometry.

insulin [3] = molecular target: T1, insulin; assay: Circular dichroism of insulin-DES formulations; format: physicochemical; settings: 37 C for two hours
Procedure: (§2) The final screening was performed to assess cold-chain stability and confirm monomer conformational stability. […] The stability of hexenoate-based formulations was further confirmed by assessing the protein's secondary structure through circular dichroism (CD). […] CD spectra integrity was also confirmed by measuring the high-tension voltage, which was maintained below 500 V for the relevant insulin CD wavelengths (FIG. 14).
Protein Stability Assessment Using Circular Dichroism and SDS-PAGE. […] In preparation for circular dichroism (CD) and SDS-PAGE, the post-dialysis concentration was measured with UV Spectrophotometry (Thermo Scientific NanoDrop One) and adjusted to 200 μg/mL. CD was performed by loading quartz cuvettes (Starna Cells Spectrosil Quartz 1-Q-1), with 200 μL of the sample, into a CD spectrophotometer (Jasco J-815). Mean ellipticity was measured from 190 to 250 nm.

rituximab [4] = assay: SPADE-mAb stability by SDS-PAGE; format: physicochemical; settings: for rituximab stability by SDS-PAGE: 37 C for 2 and 24 hours
Procedure: (§3) Described herein the exploration of whether SPADE can also enhance the absorption of a large protein biologic, namely monoclonal antibody rituximab (SPADE-mAb), that would benefit from greater absorption from subcutaneous administration. Due to the clinical requirement of higher dosing for subcutaneous antibody formulation compared to insulin, we first assessed DES concentration for stable SPADE formulation with rituximab using SDS-PAGE and CD. Formulations were prepared with various DES concentrations and consistent rituximab concentrations and incubated at 37° C. for 2 and 24 hours. After incubation, the samples were dialyzed against sodium phosphate to remove DES, and the resulting samples were diluted to the same concentration via UV-Vis spectrophotometry before SDS-PAGE and CD analyses. […] To further confirm this CD was used to assess the secondary structure of the samples that were incubated for 24 hours.
Protein Stability Assessment Using Circular Dichroism and SDS-PAGE. Insulin and antibody formulations were incubated at 37° C. for one hour and subsequently dialyzed against 10 mM Sodium Phosphate pH 7.4. In preparation for circular dichroism (CD) and SDS-PAGE, the post-dialysis concentration was measured with UV Spectrophotometry (Thermo Scientific NanoDrop One) and adjusted to 200 μg/mL. CD was performed by loading quartz cuvettes (Starna Cells Spectrosil Quartz 1-Q-1), with 200 μL of the sample, into a CD spectrophotometer (Jasco J-815). Mean ellipticity was measured from 190 to 250 nm.
To assess antibody aggregation, SDS-PAGE was performed using vertical gel electrophoresis (BioRad Mini-PROTEAN Tetra Cell) loaded with precast polyacrylamide gels (BioRad TGX 4-15%) according to the manufacturer protocol. To form SDS complexes, samples were incubated in 1× Lammeli buffer for 10 minutes at 70° C. before loading in the gel. After 30 minutes of electrophoresis, the gel was removed and protein bands stained with Coumassie dye.

antibody [5] = assay: Antibody aggregation by SDS-PAGE; format: physicochemical; settings: one hour at room temperature; versus control
Procedure: (§4) Antibody stability was next tested. Circular dichroism and SDS-PAGE were used to assess antibody stability (FIG. 5). […] Additionally, SDS-PAGE was used to assess whether acetylcholine caused aggregation (of particular importance for large beta-sheet biologics like antibodies). […] Both CD and SDS-PAGE were performed after incubation at room temperature for one hour.

rituximab [6] = assay: SPADE-mAb stability by circular dichroism; format: physicochemical; settings: 37 C for 24 hours
Procedure: as §3
Protein Stability Assessment Using Circular Dichroism and SDS-PAGE. Insulin and antibody formulations were incubated at 37° C. for one hour and subsequently dialyzed against 10 mM Sodium Phosphate pH 7.4. In preparation for circular dichroism (CD) and SDS-PAGE, the post-dialysis concentration was measured with UV Spectrophotometry (Thermo Scientific NanoDrop One) and adjusted to 200 μg/mL. […] Mean ellipticity was measured from 190 to 250 nm.

insulin [7] = molecular target: T1, insulin; assay: Cold-chain stability of insulin-DES formulations (transmittance); format: physicochemical; settings: 4 C over 28 days
Procedure: as §2, §1

antibody [8] = assay: Antibody stability by circular dichroism; format: physicochemical; settings: one hour at room temperature; versus fresh antibody control
Procedure: as §4

Type I human collagen = molecular target: T2, Type I human collagen (Homo sapiens, UniProt P02452+P08123); assay: Fluorescence polarization of Cy5.5-labeled insulin mixed with collagen; format: binding; settings: Cy5.5-labeled insulin in aCH versus saline control
T2 construct: purchased Advanced BioMatrix (Carlsbad, CA)
Procedure: The ability of SPADE to mitigate the interactions of proteins with ECM was assessed using the lead DES, aCH. A schematic representation of the hypothesized mechanism is depicted in FIG. 8A. SPADE (right) is hypothesized to decrease non-specific binding between administered therapeutic proteins and subcutaneous extracellular proteins such as collagen to allow for faster and greater absorption of protein biologics. To test this hypothesis, fluorescence polarization (FP) was performed and dynamic light scattering (DLS) utilized to determine the degree of collagen-insulin association. […] The average polarization was 1.5 times higher for the control group than the SPADE group. To further confirm the FP results and compare against Humalog, DLS was used to measure the average particle diameter (z-avg) after mixing insulin formulations with collagen, as the z-avg for insulin-bound collagen would increase with fewer unbound insulin molecules remaining and only the collagen or collagen-insulin complex being detected. The initial average z-avg for both the Humalog- and SPADE-insulin-collagen mixtures were approximately 100 nm. […]
Physical stability of the formulations in the presence of collagen was further assessed using fluorescence polarization (FP). […] When insulin is fluorescently labeled and excited with polarized light the perpendicular and parallel polarized light emission can be measured. […]

insulin [9] = molecular target: T1, insulin; assay: Circular dichroism of insulin secondary structure in ILs; format: physicochemical; settings: one hour at room temperature and at 37 C; insulin ~6 U/mL (0.2 mg/mL); versus saline negative control
Procedure: Circular dichroism was used to assess insulin secondary structure (FIG. 2). The experiment was performed after incubation at room temperature and at 37° C. (physiological temperature) for one hour. This was done to assess whether the heat change associated with subcutaneous injection may affect the insulin structure. […] “aCG” refers to acetylcholine glycolic acid and “aCH” refers to acetylcholine hexenoic acid. Insulin concentration was ˜6 U/mL (0.2 mg/mL).

[10] = molecular target: Type I Human Collagen (human) (UniProt P02452); assay: dynamic light scattering time course after mixing with collagen
[11] = molecular target: Type I Human Collagen (human) (UniProt P02452); assay: dynamic light scattering after mixing the insulin formulation with collagen
[12] = In vivo PK of insulin in ILs after subcutaneous injection; settings: rats, insulin 1 U/kg, non-fasted
[13] = molecular target: Type I Human Collagen (human) (UniProt P02452); assay: fluorescence polarization of Cy5.5-insulin mixed with Type I human collagen

Sequence of Type I Human Collagen (human) (P02452 179-1192 limits assumed, chain 1 of 2): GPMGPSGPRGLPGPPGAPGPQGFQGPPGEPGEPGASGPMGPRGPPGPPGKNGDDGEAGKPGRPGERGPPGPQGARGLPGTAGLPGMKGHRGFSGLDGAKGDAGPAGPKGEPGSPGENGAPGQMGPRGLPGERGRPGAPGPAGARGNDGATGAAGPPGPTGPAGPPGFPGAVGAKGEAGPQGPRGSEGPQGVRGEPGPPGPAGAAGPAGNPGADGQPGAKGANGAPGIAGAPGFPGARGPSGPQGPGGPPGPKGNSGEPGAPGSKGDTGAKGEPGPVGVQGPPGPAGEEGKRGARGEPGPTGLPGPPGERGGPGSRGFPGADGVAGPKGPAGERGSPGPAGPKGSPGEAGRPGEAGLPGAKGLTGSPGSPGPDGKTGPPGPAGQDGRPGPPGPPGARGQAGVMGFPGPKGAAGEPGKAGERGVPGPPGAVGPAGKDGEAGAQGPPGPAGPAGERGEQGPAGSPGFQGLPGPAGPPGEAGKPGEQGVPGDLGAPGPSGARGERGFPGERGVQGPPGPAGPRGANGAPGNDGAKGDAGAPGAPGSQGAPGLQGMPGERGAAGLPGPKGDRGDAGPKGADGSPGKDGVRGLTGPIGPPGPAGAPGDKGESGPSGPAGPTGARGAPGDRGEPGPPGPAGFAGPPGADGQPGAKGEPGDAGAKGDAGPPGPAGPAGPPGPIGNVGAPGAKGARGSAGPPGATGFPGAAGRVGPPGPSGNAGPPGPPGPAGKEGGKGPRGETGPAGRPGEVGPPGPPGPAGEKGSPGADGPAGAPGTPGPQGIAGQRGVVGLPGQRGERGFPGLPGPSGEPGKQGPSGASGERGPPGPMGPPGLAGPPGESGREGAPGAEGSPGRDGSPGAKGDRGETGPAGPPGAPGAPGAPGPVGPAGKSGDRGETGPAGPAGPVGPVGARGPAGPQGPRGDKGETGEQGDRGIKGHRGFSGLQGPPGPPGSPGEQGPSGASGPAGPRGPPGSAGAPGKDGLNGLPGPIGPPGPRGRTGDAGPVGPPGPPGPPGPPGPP
Sequence of Type I Human Collagen (human) (P08123 91-1104 limits assumed, chain 2 of 2, further chain): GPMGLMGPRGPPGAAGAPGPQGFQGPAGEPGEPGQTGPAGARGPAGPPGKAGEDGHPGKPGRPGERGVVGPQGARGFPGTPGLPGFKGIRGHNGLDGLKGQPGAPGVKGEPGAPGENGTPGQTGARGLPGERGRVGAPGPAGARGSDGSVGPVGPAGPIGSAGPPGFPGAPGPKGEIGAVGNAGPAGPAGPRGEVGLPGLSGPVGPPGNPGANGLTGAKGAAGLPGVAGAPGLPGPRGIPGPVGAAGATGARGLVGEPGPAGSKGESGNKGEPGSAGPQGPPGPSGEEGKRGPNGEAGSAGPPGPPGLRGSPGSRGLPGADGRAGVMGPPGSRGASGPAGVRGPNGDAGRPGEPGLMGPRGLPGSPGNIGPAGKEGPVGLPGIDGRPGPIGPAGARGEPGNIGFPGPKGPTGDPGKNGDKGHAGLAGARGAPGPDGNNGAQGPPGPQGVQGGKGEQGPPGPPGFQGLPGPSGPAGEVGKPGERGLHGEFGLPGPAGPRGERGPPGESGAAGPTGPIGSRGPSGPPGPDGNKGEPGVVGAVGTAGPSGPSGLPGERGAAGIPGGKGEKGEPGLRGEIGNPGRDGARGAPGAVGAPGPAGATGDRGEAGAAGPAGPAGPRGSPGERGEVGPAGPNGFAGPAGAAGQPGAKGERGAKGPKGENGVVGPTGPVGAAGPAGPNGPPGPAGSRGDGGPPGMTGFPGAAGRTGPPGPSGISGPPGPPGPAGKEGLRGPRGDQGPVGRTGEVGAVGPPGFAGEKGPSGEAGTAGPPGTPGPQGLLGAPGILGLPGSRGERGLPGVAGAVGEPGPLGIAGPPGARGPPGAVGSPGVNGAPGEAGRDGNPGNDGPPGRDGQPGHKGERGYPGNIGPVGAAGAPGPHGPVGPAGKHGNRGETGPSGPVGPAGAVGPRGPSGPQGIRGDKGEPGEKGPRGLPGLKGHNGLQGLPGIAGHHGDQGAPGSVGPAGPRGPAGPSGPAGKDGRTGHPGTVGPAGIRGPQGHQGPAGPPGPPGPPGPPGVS
T1 sequence (P01308 25-54 limits assumed, species assumed): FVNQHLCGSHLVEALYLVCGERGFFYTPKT
T1 sequence (P01308 90-110 limits assumed, species assumed): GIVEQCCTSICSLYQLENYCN
T2 sequence (P02452 162-1218 limits assumed): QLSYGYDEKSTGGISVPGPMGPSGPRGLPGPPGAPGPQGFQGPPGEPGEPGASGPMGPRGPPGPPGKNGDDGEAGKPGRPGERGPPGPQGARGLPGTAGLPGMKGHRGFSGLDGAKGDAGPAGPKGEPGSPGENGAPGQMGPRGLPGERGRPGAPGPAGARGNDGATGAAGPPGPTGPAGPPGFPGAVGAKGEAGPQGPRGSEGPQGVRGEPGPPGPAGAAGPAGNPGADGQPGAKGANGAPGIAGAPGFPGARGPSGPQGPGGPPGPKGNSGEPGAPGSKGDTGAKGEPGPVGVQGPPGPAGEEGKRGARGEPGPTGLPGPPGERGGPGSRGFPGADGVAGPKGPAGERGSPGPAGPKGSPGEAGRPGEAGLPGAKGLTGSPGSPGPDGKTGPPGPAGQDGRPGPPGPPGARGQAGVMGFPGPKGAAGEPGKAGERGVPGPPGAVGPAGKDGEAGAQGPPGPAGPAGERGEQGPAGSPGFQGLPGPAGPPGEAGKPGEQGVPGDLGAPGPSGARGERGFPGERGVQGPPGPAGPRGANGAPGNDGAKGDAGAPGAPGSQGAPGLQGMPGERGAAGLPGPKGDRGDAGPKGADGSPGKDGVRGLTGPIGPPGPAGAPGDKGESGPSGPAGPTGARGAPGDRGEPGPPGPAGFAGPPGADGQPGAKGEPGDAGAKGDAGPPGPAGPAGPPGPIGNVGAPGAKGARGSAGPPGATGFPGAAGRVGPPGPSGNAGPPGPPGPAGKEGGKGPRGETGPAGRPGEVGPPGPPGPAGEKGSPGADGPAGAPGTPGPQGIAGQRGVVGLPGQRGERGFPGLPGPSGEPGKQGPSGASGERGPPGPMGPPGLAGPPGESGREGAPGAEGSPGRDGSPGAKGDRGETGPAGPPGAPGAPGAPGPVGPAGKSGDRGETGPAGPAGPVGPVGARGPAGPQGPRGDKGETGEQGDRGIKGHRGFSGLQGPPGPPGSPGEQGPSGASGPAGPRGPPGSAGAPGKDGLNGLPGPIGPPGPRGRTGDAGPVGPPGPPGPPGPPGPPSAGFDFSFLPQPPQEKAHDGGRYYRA
T2 sequence (P08123 80-1119 limits assumed): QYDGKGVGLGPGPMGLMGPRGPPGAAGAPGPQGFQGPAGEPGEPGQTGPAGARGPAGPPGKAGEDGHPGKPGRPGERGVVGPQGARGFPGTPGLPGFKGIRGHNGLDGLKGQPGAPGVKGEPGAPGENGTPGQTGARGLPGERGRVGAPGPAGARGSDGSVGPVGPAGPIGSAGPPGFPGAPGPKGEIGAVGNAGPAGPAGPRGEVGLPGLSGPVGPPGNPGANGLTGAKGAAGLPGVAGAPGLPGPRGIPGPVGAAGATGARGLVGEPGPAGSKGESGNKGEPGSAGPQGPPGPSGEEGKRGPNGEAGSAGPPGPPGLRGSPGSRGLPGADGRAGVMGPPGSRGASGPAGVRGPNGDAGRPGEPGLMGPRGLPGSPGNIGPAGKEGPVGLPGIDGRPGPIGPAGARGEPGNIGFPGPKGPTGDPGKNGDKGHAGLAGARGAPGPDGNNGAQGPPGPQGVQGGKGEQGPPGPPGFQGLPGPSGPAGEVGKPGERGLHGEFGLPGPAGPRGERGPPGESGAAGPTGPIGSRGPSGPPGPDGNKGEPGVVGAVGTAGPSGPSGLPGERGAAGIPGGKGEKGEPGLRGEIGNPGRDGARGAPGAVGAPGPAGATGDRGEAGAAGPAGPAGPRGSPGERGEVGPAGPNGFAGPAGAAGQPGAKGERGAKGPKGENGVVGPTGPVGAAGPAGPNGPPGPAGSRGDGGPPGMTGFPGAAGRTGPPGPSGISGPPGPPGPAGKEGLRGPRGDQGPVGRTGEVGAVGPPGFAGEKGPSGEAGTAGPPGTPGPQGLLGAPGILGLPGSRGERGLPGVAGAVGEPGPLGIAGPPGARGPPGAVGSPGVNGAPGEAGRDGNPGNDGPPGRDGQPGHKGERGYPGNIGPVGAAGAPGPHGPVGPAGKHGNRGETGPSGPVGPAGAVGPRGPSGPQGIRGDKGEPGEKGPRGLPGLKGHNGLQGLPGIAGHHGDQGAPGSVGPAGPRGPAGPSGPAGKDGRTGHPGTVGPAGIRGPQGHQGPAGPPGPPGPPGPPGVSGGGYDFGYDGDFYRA
Sequence of Cy 5.5 fluorescently-labeled insulin (ligand) (P01308 25-54): as the sequence (P01308 25-54 limits assumed, species assumed) above

## acetylcholinium priopionate DES [aCP]
Insulin [1]
  outcome of stressed aging test: viable

## hyaluronidase
[2]
  increase of rituximab absorption: 91%

## acetylcholinium hexenoate DES [aCH]
Dendritic cell line
  mean fluorescent intensity (GFP expression): higher
  percent of cells expressing GFP: increased
Insulin [3]
  CD spectra of insulin versus control insulin in sodium phosphate buffer: matched that of the control insulin
Rituximab [4]; 10% (v/v) DES
  rituximab stability by SDS-PAGE: faint band further up the gel
Rituximab [4]; SDS-PAGE and CD stability studies
  appropriate DES concentration for the SPADE-mAb formulation (from stability studies): 5 % (v/v)
Rituximab [4]; all DES concentrations apart from 10% (v/v)
  rituximab stability by SDS-PAGE: stable
Antibody [5]
  antibody aggregation (SDS-PAGE): looked the same as the control
Rituximab [6]; 10% (v/v) DES
  rituximab secondary structure by CD versus control: shift in mean ellipticity
Rituximab [6]; DES concentrations other than 10% (v/v)
  rituximab secondary structure by CD versus control: none of the other DES concentrations experienced this shift
Insulin [7]
  cold-chain stability: stable through Day 28
Insulin [1]
  outcome of stressed aging test: viable
Antibody [8]
  secondary structure of the antibody (circular dichroism): not affected
Type I human collagen
  non-specific insulin-collagen binding (fluorescence polarization): inhibits non-specific insulin-collagen binding
Insulin [9]
  insulin secondary structure (circular dichroism curves): match the saline negative control groups

## Humalog (insulin lispro) (ligand)
[10]
  average particle diameter (z-avg) of the mixture with collagen over 60 min: > 5000 nm
[11]
  initial average particle diameter (z-avg) of the mixture with collagen: 100 nm

## acetylcholinium glycolate DES [aCG]
[12]
  Cmax of serum insulin, greater than the choline variant: 50%
Insulin [9]
  insulin secondary structure (circular dichroism curves): match the saline negative control groups

## regular insulin formulated in aCH (SPADE-insulin) (from UniProt P01308 25-54; P01308 90-110) (ligand)
[10]
  average particle diameter (z-avg) of the mixture with collagen over 60 min: 100 nm
[11]
  initial average particle diameter (z-avg) of the mixture with collagen: 100 nm

## cholinium hexenoate DES
Insulin [3]
  CD spectra of insulin versus control insulin in sodium phosphate buffer: matched that of the control insulin
Insulin [7]
  cold-chain stability: stable through Day 28
Insulin [1]
  outcome of stressed aging test: viable

## Cy 5.5 fluorescently-labeled insulin (ligand)
[13]
  fold average polarization, control (saline) over SPADE (aCH): 1.5 fold

## cholinium propionate DES [CP]
Insulin [1]
  outcome of stressed aging test: viable
